Results as given in patent publication US9353092B2, “Synthesis and use of croconaine compounds” (University of Notre Dame du Lac, priority 2013, dated 2016).
Each block holds one compound with its values, some of them ahead of it.

What was measured:
Type in all cases: physicochemical
[1] = Photobleaching / photostability under near-infrared laser irradiation; conditions: 4:1 MeOH/H2O; for Heating effect during extended near-infrared irradiation: 780 nm, 250 mW, 15 minute, 1.67 μg/mL croconaine 1, 2.00 μg/mL ICG, FIG. 13; for Change in absorbance after laser irradiation: FIGS. 14 and 15
Experimental: These experiments were conducted in 4:1 MeOH/H2O, with 1.67 μg/mL of croconaine 1 and 2.00 μg/mL of ICG respectively. This difference in compound photobleaching was confirmed with studies that looked at changes in the compound absorption signal.

[2] = Absorbance of solutions in 4:1 MeOH/H2O; conditions: 780 nm
[3] = Laser photothermal heating of a solution (temperature change by thermocouple); conditions: for ΔT (temperature change during laser irradiation): 780 nm
Text: This example describes a method of using compound 1 to increase the temperature of a solution. […] An Omega hypodermic thermocouple (HYPO-33-1-T-G-60-SMPW-M) was placed in the solution and the temperature measured using the associated USB converter. The Ti:Sapphire laser beam was aligned to pass through the solution (above the stirrer and avoiding close contact with the thermocouple) in an identical manner in every experiment. The laser wavelength was set at 780 and the power controlled to be 250 mW during all of the experiments, with a beam diameter of 0.3 cm.
[…] An Omega hypodermic thermocouple (HYPO-33-1-T-G-60-SMPW-M) was placed in the solution and the temperature measured using the associated USB converter. The Ti:Sapphire laser beam was aligned to pass through the solution (above the stirrer and avoiding close contact with the thermocouple) in an identical manner in every experiment. The laser wavelength was set at 780 or 808 nm and the power controlled to be 250 mW during all of the experiments, with a beam diameter of 0.3 cm.

[4] = 810 nm, 900 s, 260 mW, 0.005 mg/mL

Heating effect during extended near-infrared irradiation [1]: no heating effect loss
Change in absorbance after laser irradiation [1, 4]: no change
A (absorbance value) ([2]; 0.10 μg/mL): 0.04
A (absorbance value) ([2]; 0.25 μg/mL): 0.11
A (absorbance value) ([2]; 0.50 μg/mL): 0.22
A (absorbance value) ([2]; 1.00 μg/mL): 0.46
A (absorbance value) ([2]; 1.67 μg/mL): 0.73
A (absorbance value) ([2]; 2.50 μg/mL): 1.13
A (absorbance value) ([2]; 5.00 μg/mL): 2.24
A (absorbance value) ([2]; 50.0 μg/mL, estimated): ~22.4 (est)
Concentration dependence of absorbance ([2]; FIGS. 8 and 9): obeys the Beer-Lambert Law
Structure (SMILES): C#CCOCCN(CC)c1ccc(C2=C([O-])/C(=C3C=C/C(=[N+](/CC)CCOCC#C)S\3)C(=O)C2=O)s1 [Compound 1]
ΔT (temperature change during laser irradiation) ([3]; 0.10 μg/mL, 4:1 MeOH/H2O, 250 mW): 0.1 °C
ΔT (temperature change during laser irradiation) ([3]; 0.25 μg/mL, 4:1 MeOH/H2O, 250 mW): 2.0 °C
ΔT (temperature change during laser irradiation) ([3]; 0.50 μg/mL, 4:1 MeOH/H2O, 250 mW): 3.4 °C
ΔT (temperature change during laser irradiation) ([3]; 1.00 μg/mL, 4:1 MeOH/H2O, 250 mW): 7.2 °C
ΔT (temperature change during laser irradiation) ([3]; 1.67 μg/mL, 4:1 MeOH/H2O, 250 mW): 9.8 °C
ΔT (temperature change during laser irradiation) ([3]; 2.50 μg/mL, 4:1 MeOH/H2O, 250 mW): 10.4 °C
ΔT (temperature change during laser irradiation) ([3]; 5.00 μg/mL, 4:1 MeOH/H2O, 250 mW): 11.0 °C
ΔT (temperature change during laser irradiation) ([3]; 50.0 μg/mL, 4:1 MeOH/H2O, 250 mW): 11.3 °C
Heating on laser irradiation at different wavelengths ([3]; 4:1 MeOH/H2O, 0.05 mg/mL for laser experiments, FIG. 12): proportional to the amount of light absorbed
Dependence of heating on absorbance ([3]; 780 nm laser light, Table 1, FIGS. 10 and 11): linear with absorbance from about A=0 until about A=1

Structure (SMILES): C#CCOCCN(Cc1ccccc1)c1ccc(C2=C([O-])/C(=C3C=C/C(=[N+](\CCOCC#C)Cc4ccccc4)S\3)C(=O)C2=O)s1 [Compound 2]
Ability to increase the temperature of a solution ([3]; 2.0 or 50.0 μg/mL, 4:1 MeOH/H2O, 780 or 808 nm, 250 mW): same ability as compound 1

Decrease in the absorbance after laser irradiation ([1]; 810 nm, 900 s, 260 mW, 0.005 mg/mL, FIG. 15): ~50%
Change in absorbance after laser irradiation [1, 4]: drop
Structure (SMILES): CC1(C)C(/C=C/C=C/C=C/C=C2\N(CCCCS(=O)(=O)O)c3ccc4ccccc4c3C2(C)C)=[N+](CCCCS(=O)(=O)[O-])c2ccc3ccccc3c21 [ICG, indocyanine green]
Heating effect during extended near-infrared irradiation [1]: loss of heating effect due to photobleaching
